Results: PMC11167047 (Cell Death Discovery, 2024)

Tests used:
Test in all cases: kinome screen (33PanQinase)
Format in all cases: biochemical
[1] = target: T1, ACVRL1 (Homo sapiens, UniProt P37023)
T1 construct: purchased Reaction Biology Europe GmbH (formerly ProQinase)
Description: (§1) The Kinome Screening was performed by Reaction Biology Europe GmbH (http://reactionbiology.com; Freiburg i. Br., Germany).

[2] = target: T2, HRI (Homo sapiens, UniProt Q9BQI3)
T2 construct: purchased Reaction Biology Europe GmbH (formerly ProQinase)
T2 sequence (Q9BQI3 whole entry): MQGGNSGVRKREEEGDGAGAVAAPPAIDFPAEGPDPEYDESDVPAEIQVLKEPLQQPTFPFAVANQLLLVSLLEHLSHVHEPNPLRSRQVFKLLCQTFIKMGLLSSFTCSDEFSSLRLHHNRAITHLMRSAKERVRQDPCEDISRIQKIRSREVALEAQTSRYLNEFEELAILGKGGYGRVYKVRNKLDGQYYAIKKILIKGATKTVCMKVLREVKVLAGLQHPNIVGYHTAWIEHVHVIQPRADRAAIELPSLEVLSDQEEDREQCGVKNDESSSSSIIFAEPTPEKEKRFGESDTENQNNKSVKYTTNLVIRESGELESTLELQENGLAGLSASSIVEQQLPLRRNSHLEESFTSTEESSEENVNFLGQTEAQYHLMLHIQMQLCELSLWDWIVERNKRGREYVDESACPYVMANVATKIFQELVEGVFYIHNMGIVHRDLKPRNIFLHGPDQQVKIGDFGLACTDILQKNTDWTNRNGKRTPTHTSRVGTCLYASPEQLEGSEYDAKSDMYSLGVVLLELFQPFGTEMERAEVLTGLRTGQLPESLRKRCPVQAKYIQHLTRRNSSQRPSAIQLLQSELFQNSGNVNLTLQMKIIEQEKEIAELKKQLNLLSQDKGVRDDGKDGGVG
Description: as §1

[3] = target: T3, FGFR3 (Homo sapiens, UniProt P22607)
T3 construct: purchased Reaction Biology Europe GmbH (formerly ProQinase)
T3 sequence (P22607 23-806): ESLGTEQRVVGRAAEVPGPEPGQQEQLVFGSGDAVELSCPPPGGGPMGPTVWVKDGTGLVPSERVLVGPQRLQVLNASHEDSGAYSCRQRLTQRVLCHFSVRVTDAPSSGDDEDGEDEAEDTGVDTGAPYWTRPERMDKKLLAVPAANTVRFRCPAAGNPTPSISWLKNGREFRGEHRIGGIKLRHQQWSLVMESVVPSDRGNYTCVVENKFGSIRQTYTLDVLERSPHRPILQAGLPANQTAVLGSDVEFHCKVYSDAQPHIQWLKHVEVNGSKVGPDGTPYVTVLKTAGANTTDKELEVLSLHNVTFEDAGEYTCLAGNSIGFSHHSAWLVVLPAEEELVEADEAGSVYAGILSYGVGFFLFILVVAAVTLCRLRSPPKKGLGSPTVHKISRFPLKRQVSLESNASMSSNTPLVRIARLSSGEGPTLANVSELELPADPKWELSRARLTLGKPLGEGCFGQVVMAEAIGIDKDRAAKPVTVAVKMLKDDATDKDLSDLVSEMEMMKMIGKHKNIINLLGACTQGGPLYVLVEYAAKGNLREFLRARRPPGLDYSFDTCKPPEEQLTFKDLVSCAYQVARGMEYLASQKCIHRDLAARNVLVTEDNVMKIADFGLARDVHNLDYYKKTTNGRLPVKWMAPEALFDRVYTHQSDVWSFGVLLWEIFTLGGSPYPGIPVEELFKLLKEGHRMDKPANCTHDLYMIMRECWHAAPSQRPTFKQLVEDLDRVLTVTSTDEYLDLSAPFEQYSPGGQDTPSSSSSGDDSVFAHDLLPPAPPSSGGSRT
Description: as §1

[4] = target: T4, CDK6/CycD3 (Homo sapiens, UniProt Q00534)
T4 construct: purchased Reaction Biology Europe GmbH (formerly ProQinase)
T4 sequence (Q00534 whole entry): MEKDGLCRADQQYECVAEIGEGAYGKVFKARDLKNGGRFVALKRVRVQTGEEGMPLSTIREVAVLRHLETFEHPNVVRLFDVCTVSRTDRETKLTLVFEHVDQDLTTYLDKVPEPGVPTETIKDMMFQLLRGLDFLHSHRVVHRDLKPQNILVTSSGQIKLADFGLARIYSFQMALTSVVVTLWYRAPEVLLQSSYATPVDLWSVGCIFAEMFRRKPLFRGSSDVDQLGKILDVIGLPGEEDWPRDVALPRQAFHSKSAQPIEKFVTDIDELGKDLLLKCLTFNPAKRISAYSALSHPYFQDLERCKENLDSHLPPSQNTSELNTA
T4 sequence (P30281 whole entry partner): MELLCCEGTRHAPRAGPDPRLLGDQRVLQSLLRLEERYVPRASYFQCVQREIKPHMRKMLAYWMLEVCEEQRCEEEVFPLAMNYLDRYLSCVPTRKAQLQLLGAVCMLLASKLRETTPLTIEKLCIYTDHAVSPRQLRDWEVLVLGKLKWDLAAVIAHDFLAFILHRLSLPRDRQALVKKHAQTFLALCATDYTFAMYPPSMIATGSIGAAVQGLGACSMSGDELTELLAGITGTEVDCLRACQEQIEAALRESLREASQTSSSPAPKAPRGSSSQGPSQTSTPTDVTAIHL
Description: as §1

[5] = target: T5, EPHA8 (Homo sapiens, UniProt P29322)
T5 construct: purchased Reaction Biology Europe GmbH (formerly ProQinase)
T5 sequence (P29322 28-1005): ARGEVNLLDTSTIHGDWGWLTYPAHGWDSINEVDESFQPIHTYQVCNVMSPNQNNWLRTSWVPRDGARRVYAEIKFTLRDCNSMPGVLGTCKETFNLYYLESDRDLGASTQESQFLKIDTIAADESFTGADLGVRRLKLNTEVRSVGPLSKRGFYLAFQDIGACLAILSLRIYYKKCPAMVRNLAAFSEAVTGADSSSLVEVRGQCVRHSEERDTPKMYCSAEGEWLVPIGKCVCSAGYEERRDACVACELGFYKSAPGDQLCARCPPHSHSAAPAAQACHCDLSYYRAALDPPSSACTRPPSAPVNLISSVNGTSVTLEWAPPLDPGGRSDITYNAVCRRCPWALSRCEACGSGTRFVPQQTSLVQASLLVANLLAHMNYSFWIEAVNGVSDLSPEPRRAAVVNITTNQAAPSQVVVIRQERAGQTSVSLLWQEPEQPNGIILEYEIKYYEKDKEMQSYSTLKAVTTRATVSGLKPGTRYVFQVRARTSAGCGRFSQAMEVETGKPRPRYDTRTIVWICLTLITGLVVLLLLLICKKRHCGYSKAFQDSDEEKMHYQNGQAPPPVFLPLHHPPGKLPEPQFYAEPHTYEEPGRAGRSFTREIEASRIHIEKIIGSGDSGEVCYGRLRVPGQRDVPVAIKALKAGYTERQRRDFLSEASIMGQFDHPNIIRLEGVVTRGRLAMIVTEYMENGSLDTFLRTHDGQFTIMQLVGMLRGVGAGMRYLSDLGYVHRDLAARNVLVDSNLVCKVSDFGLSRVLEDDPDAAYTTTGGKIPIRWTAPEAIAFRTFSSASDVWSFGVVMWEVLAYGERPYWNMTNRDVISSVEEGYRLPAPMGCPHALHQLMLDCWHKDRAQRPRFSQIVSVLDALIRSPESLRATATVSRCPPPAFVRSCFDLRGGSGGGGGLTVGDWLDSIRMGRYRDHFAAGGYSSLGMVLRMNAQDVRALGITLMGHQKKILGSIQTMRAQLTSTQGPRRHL
Description: as §1

[6] = target: T6, PAK2 (Homo sapiens, UniProt Q13177)
T6 construct: purchased Reaction Biology Europe GmbH (formerly ProQinase)
T6 sequence (Q13177 whole entry): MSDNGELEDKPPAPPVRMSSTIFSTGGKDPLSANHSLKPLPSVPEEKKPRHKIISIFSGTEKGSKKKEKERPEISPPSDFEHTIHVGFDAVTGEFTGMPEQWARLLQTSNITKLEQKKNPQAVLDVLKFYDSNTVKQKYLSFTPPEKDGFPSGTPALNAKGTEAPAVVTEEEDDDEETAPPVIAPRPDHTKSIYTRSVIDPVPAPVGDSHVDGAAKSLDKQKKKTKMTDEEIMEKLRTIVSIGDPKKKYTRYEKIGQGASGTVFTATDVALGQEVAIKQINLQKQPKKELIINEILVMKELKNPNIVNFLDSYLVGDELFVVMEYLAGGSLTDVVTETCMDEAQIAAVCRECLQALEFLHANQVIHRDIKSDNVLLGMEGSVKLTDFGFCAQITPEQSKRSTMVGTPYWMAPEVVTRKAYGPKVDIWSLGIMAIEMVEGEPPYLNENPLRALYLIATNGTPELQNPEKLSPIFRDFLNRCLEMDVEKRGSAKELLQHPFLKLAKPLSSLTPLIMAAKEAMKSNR
Description: as §1

[7] = target: T7, FGFR4 (Homo sapiens, UniProt P22455)
T7 construct: purchased Reaction Biology Europe GmbH (formerly ProQinase)
T7 sequence (P22455 22-802): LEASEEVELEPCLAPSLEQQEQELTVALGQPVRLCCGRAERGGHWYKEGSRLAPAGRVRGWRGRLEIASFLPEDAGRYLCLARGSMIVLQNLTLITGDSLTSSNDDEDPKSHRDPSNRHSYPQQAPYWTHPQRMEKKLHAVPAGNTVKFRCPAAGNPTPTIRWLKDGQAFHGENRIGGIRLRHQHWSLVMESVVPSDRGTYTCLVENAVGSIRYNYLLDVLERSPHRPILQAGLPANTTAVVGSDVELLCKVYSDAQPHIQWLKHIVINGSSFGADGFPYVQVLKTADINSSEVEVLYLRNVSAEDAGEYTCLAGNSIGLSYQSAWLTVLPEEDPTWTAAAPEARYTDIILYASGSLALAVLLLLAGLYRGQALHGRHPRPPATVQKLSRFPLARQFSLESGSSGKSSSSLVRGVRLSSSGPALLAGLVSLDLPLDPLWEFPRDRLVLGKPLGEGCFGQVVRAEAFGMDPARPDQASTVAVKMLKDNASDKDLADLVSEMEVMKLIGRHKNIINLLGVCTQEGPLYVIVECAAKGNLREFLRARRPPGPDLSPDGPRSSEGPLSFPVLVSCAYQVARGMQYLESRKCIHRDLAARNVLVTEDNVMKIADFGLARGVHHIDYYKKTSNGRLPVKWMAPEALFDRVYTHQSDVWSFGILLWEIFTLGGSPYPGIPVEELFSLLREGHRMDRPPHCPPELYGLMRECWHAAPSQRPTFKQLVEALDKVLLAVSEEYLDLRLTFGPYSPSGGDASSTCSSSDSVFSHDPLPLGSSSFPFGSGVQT
Description: as §1

[8] = target: T8, ABL1 (Homo sapiens, UniProt P00519)
T8 construct: purchased Reaction Biology Europe GmbH (formerly ProQinase)
T8 sequence (P00519 whole entry): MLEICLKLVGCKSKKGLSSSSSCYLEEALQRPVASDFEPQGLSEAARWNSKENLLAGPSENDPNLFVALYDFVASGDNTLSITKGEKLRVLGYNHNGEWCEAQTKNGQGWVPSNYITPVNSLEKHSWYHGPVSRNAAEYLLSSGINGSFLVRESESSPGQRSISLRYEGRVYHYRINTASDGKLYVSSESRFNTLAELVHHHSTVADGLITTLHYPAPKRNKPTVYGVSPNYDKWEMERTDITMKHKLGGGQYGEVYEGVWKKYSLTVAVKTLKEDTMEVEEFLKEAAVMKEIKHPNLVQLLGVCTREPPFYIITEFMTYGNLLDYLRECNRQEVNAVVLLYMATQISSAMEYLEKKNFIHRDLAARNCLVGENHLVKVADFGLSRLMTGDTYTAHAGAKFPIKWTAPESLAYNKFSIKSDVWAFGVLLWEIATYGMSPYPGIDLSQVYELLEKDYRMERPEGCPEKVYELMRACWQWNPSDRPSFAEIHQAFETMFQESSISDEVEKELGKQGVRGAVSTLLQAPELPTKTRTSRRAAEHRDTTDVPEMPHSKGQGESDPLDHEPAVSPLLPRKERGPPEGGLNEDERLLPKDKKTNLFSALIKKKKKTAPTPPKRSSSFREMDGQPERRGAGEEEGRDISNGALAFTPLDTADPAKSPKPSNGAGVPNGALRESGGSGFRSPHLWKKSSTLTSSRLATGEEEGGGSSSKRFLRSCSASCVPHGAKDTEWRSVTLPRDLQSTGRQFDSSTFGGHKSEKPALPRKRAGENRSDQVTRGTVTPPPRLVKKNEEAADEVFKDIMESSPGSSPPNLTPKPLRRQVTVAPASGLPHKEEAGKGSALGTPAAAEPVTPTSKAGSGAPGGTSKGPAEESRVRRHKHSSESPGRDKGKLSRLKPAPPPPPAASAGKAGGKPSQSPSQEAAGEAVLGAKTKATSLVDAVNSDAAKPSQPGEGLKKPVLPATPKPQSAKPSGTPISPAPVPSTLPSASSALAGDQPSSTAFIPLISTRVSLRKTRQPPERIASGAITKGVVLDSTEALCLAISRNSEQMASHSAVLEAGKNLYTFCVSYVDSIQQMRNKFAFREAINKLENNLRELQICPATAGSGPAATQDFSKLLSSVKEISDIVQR
Description: as §1

[9] = target: T9, VRK1 (Homo sapiens, UniProt Q99986)
T9 construct: purchased Reaction Biology Europe GmbH (formerly ProQinase)
T9 sequence (Q99986 1-396): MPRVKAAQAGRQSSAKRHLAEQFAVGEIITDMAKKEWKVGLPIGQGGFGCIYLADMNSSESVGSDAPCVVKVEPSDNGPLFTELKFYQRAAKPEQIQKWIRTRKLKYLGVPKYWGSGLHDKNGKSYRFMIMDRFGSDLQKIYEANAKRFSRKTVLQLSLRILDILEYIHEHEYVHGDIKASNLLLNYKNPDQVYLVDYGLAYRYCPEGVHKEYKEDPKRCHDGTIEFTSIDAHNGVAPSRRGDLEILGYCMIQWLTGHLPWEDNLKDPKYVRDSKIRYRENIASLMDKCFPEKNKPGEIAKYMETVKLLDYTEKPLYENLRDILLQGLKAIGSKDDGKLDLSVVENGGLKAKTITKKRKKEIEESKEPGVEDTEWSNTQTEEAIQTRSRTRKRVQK
Description: as §1

[10] = target: T10, PDK1 (Homo sapiens, UniProt O15530)
T10 construct: purchased Reaction Biology Europe GmbH (formerly ProQinase)
T10 sequence (O15530 1-556): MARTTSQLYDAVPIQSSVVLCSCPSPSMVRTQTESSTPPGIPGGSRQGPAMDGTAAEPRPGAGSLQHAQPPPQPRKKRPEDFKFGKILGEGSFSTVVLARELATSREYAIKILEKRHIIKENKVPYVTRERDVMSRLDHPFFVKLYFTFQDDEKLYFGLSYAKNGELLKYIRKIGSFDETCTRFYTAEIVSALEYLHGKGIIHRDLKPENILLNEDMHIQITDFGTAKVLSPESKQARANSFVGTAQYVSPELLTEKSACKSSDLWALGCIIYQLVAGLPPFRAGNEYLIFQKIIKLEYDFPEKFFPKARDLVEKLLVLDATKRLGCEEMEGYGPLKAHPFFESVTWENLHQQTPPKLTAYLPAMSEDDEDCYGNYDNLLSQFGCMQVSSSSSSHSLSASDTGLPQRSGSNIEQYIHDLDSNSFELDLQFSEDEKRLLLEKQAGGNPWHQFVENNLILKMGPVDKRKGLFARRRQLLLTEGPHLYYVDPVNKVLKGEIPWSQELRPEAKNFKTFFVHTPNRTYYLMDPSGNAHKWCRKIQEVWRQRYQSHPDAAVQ
Description: as §1

T1 sequence (P37023 22-503): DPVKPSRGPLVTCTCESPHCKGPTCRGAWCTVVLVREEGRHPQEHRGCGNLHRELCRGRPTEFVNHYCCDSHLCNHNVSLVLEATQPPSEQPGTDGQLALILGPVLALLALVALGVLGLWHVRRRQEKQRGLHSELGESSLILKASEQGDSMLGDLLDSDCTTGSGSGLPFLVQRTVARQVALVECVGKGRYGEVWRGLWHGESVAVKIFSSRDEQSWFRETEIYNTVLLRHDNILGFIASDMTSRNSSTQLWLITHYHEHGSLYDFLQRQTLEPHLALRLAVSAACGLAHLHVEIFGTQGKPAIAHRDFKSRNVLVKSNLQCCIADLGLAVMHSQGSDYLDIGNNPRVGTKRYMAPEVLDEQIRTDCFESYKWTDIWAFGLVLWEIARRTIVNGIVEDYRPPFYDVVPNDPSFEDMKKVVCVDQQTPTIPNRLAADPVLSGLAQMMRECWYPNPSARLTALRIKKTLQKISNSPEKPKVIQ

COc1ccnc2[nH]cc(-c3cc(N)nc(N)c3)c12 [meriolin 16]
residual kinase activity ([1]; 0.03 µM): 101 % of control
residual kinase activity ([1]; 0.3 µM): 89 % of control
residual kinase activity ([2]; 0.03 µM): 98 % of control
residual kinase activity ([2]; 0.3 µM): 90 % of control
residual kinase activity ([3]; 0.03 µM): 93 % of control
residual kinase activity ([3]; 0.3 µM): 84 % of control
residual kinase activity ([4]; 0.03 µM): 88 % of control
residual kinase activity ([4]; 0.3 µM): 98 % of control
residual kinase activity ([5]; 0.03 µM): 119 % of control
residual kinase activity ([5]; 0.3 µM): 107 % of control
residual kinase activity ([6]; 0.03 µM): 92 % of control
residual kinase activity ([6]; 0.3 µM): 93 % of control
residual kinase activity ([7]; 0.03 µM): 91 % of control
residual kinase activity ([7]; 0.3 µM): 87 % of control
residual kinase activity ([8]; 0.03 µM): 103 % of control
residual kinase activity ([8]; 0.3 µM): 99 % of control
residual kinase activity ([9]; 0.03 µM): 114 % of control
residual kinase activity ([9]; 0.3 µM): 108 % of control
residual kinase activity ([10]; 0.03 µM): 98 % of control
residual kinase activity ([10]; 0.3 µM): 83 % of control

c1ccc(CNc2cc(-c3c[nH]c4ncccc34)ccn2)cc1 [meriolin 36]
residual kinase activity ([1]; 0.3 µM): 43 % of control
residual kinase activity ([1]; 3 µM): 9 % of control
residual kinase activity ([2]; 0.3 µM): 93 % of control
residual kinase activity ([2]; 3 µM): 71 % of control
residual kinase activity ([3]; 0.3 µM): 64 % of control
residual kinase activity ([3]; 3 µM): 20 % of control
residual kinase activity ([4]; 0.3 µM): 76 % of control
residual kinase activity ([4]; 3 µM): 26 % of control
residual kinase activity ([5]; 0.3 µM): 113 % of control
residual kinase activity ([5]; 3 µM): 94 % of control
residual kinase activity ([6]; 0.3 µM): 71 % of control
residual kinase activity ([6]; 3 µM): 17 % of control
residual kinase activity ([7]; 0.3 µM): 98 % of control
residual kinase activity ([7]; 3 µM): 58 % of control
residual kinase activity ([8]; 0.3 µM): 80 % of control
residual kinase activity ([8]; 3 µM): 26 % of control
residual kinase activity ([9]; 0.3 µM): 104 % of control
residual kinase activity ([9]; 3 µM): 61 % of control
residual kinase activity ([10]; 0.3 µM): 160 % of control
residual kinase activity ([10]; 3 µM): 39 % of control
